The values below come from patent US20250195513A1, “DEGRADATION OF IRAK4 BY CONJUGATION OF IRAK4 INHIBITORS WITH E3 LIGASE LIGAND AND METHODS OF USE” (BeiGene, Ltd., priority 2022, published 2025).

What all share (assay type): cell-based
Assay [1] deals with T1, IRAK4 (Homo sapiens, UniProt Q9NWZ3).
T1 construct: endogenous in cells; host or cells: Karpas299
T1 sequence (Q9NWZ3 1-460): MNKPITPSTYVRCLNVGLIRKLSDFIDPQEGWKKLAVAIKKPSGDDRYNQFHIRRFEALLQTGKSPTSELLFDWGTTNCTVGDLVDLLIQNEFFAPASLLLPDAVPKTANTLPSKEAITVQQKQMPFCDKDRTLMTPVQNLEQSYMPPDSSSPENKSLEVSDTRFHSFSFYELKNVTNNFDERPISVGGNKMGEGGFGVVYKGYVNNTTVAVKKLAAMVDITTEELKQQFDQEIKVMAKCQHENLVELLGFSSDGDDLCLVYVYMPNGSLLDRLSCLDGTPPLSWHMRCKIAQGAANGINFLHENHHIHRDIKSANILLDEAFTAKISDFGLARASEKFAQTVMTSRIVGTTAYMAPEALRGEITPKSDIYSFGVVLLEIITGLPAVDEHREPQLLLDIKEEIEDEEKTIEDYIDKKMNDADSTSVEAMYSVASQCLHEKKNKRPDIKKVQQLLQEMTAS
Briefly: IRAK4 Degradation Assay (Karpas299, HTRF/TR-FRET). Conditions: Karpas-299 cells; for Dmax: maximum percentage of degradation. Put shortly: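 Karpas299 cells at 0.2 million per well were exposed to serially diluted compounds for 24 h or 5 h, then lysed. IRAK4 remaining in lysates was quantified by HTRF (665/620 nm) after overnight antibody incubation at room temperature. Percent degradation was fitted to a four-parameter curve to give IC50 (DC50).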

For assay [2], the system named is TNF-α production in THP-1 cells. Briefly: TNF-α Production Assay in THP-1 Cells (LPS stimulated). The conditions noted are these: for IC50 / Emax: THP-1, 24 h; for Emax: read-out: TNF-α (THP-1) 24 h IMax. Put shortly: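 Cells (0.2 million/well) pretreated with compounds for 24 h, then stimulated with LPS at 1 μg/mL final for 24 h. TNF-α in culture supernatant quantified by TR-FRET immunoassay.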

The test system of assay [3] is IL-6 production in human PBMC. As to the kind of experiment: IL-6 Production Assay in Human PBMC (LPS stimulated). Conditions: for IC50 / Emax: Homo sapiens, 5 h; for Emax: read-out: IL-6 (PBMC) 5 h IMax. The method, then: Frozen human PBMC (AllCells) were thawed in RPMI 1640 medium (Thermo Scientific) supplemented with 10% heat-inactivated FBS (Thermo Scientific) and recovered at 37° C. overnight. The next day, PBMC were seeded into 96-well plates at the density of 0.2 million cells per well and treated with compounds for 24 h. Then lipopolysaccharide was added at the final concentration of 10 ng/mL for 5 h. Culture supernatant was collected for subsequent measurement of IL-6 concentration by a TR-FRET-based method (Degorce, François, et al. Current chemical genomics. 2009, 3: 22) as described by the manufacturer manual (Cisbio). FRET signals were measured with PHERAstar FSX reader (BMG Labtech).

Assay [4] addresses T1, IRAK4. Briefly: IRAK4 Degradation Assay with Human Serum (Karpas299, HTRF/TR-FRET). Conditions: Karpas-299 in human serum, 24 hrs treatment; for DC50: read-out: IRAK4 degradtion with human serum assay DC50; for Dmax: read-out: IRAK4 degradtion with human serum assay Dmax (%). An outline of the steps: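 Karpas299 cells in human AB serum (0.2 million/well) treated with serial compound dilutions for 24 h. After lysis, IRAK4 quantified by HTRF (overnight antibody incubation at room temperature, 665/620 nm read). Degradation percentage fitted to four-parameter curve to give DC50.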
A general note: TR-FRET usually uses a lanthanide donor and a delayed reading to cut background.

Where [5] appears, read: 5 h treatment, read-out: IRAK4 in Karpas-299 (5 h) Dmax (%).
[6] abbreviates: 5 h treatment, read-out: IRAK4 in Karpas-299 (5 h) DC50.
[7] abbreviates: 24 h treatment, read-out: IRAK4 in Karpas-299 (24 h) Dmax (%).
Where [8] appears, read: 24 h treatment, read-out: IRAK4 in Karpas-299 (24 h) DC50.
Setting [9] is: Homo sapiens, maximum inhibition.

Structures are written as SMILES.

What is called Dmax is the greatest extent of degradation seen. One may read the DC50 as the midpoint of the concentration-degradation curve. What is called IC50 is the concentration at which inhibition is half-maximal. Lower therefore signals higher potency. Consider `COc1cc2nn([C@H]3CC[C@H](CN4CCN(C(=O)[C@H]5CCN(c6ccc(N7CCC(=O)NC7=O)cc6)C5)CC4)CC3)cc2cc1NC(=O)c1cccn(C2CC2)c1=O` [Example 34, 1-cyclopropyl-N-(2-((1S,4r)-4-((4-((S)-1-(4-(2,4-dioxotetrahydropyrimidin-1(2H)-yl)phenyl)pyrrolidine-3-carbonyl)piperazin-1-yl)methyl)cyclohexyl)-6-methoxy-2H-indazol-5-yl)-2-oxo-1,2-dihydropyridine-3-carboxamide], for which the Dmax is 81% in assay [1] (setting [5]) and 95% in assay [1] (setting [7]). Also, the DC50 came out at 18 nM in assay [1] (setting [6]) and 3.6 nM in assay [1] (setting [8]). In addition, the values for the IC50 in assay [2] (Homo sapiens) and in assay [3] were 77 nM and 18 nM, respectively. Moreover, the Emax in assay [2] (setting [9]) worked out at 72%; in assay [3] (maximum inhibition), 85%.
Regarding `[2H]C([2H])([2H])Oc1cc2nn([C@H]3CC[C@H](N4CCN(C(=O)C5CN(c6cc(F)c([C@H]7CCC(=O)NC7=O)c(F)c6)C5)CC4)CC3)cc2cc1NC(=O)c1cccc(C(F)(F)F)n1` [Example 165, N-(2-((1r,4r)-4-(4-(1-(4-((R)-2,6-dioxopiperidin-3-yl)-3,5-difluorophenyl)azetidine-3-carbonyl)piperazin-1-yl)cyclohexyl)-6-(methoxy-d3)-2H-indazol-5-yl)-6-(trifluoromethyl)picolinamide], the Dmax in assay [1] (setting [5]) was 97%; in assay [1] (setting [7]) it was 98%. In addition, the DC50 in assay [1] (setting [6]) amounted to 13 nM; in assay [1] (setting [8]), 0.7 nM. Besides, the IC50 in assay [2] (Homo sapiens) worked out at 73 nM; in assay [3], 7.9 nM. Further, the Emax in assay [2] (setting [9]) came to 82%; in assay [3] (maximum inhibition) it was 91%.
Consider `COC[C@@H]1CN([C@H]2CC[C@H](n3cc4cc(NC(=O)c5ccc6cc(C#N)cnn56)c(C(C)(C)O)cc4n3)CC2)CCN1C1CN(c2cc(F)c([C@H]3CCC(=O)NC3=O)c(F)c2)C1` [Example 387, 3-cyano-N-(2-((1S,4r)-4-((S)-4-(1-(4-((R)-2,6-dioxopiperidin-3-yl)-3,5-difluorophenyl)azetidin-3-yl)-3-(methoxymethyl)piperazin-1-yl)cyclohexyl)-6-(2-hydroxypropan-2-yl)-2H-indazol-5-yl)pyrrolo[1,2-b]pyridazine-7-carboxamide], for which the figures for the greatest degradation seen (Dmax) in assay [1] (setting [5]), in assay [1] (setting [7]) and in assay [4] were 90%, 98% and 95%, respectively. Besides, the figures for the DC50 in assay [1] (setting [6]), in assay [1] (setting [8]) and in assay [4] were 1.3 nM, 0.8 nM and 6.9 nM, respectively. Also, the IC50 in assay [3] worked out at 1.7 nM. Also, the Emax in assay [3] (maximum inhibition) came to 53%.
As to `CC(C)(O)c1cc2nn(C3CCC(N4C[C@@H]5CN(C6CN(c7cc(F)c([C@H]8CCC(=O)NC8=O)c(F)c7)C6)C[C@H]5C4)CC3)cc2cc1NC(=O)c1ccc2cc(C#N)cnn12` (stereo partly drawn) [Example 360, 3-cyano-N-(2-((1R,4r)-4-((3aR,6aR)-5-(1-(4-((R)-2,6-dioxopiperidin-3-yl)-3,5-difluorophenyl)azetidin-3-yl)hexahydropyrrolo[3,4-c]pyrrol-2(1H)-yl)cyclohexyl)-6-(2-hydroxypropan-2-yl)-2H-indazol-5-yl)pyrrolo[1,2-b]pyridazine-7-carboxamide], the Dmax in assay [1] (setting [7]) was 97%; in assay [4], 98%. The DC50 came to 0.6 nM in assay [1] (setting [8]) and 1.8 nM in assay [4]. Moreover, the IC50 in assay [3] is 0.6 nM. For the same compound, the Emax in assay [3] (maximum inhibition) is 67%.
For `CC(C)(O)c1cc2nn([C@H]3CC[C@H](N4CCN([C@H]5C[C@@H](c6cc(F)c([C@H]7CCC(=O)NC7=O)c(F)c6)C5)CC4)CC3)cc2cc1NC(=O)c1ccc2cc(C#N)cnn12` [Example 363, 3-cyano-N-(2-((1S,4r)-4-(4-((1S,3S)-3-(4-((R)-2,6-dioxopiperidin-3-yl)-3,5-difluorophenyl)cyclobutyl)piperazin-1-yl)cyclohexyl)-6-(2-hydroxypropan-2-yl)-2H-indazol-5-yl)pyrrolo[1,2-b]pyridazine-7-carboxamide], the Dmax in assay [1] (setting [5]) worked out at 95%; in assay [1] (setting [7]), 96%; in assay [4] it was 97%. Besides, the DC50 came to 1.2 nM in assay [1] (setting [6]), 0.8 nM in assay [1] (setting [8]) and 5.9 nM in assay [4]. The IC50 in assay [3] stood at 2.2 nM. The Emax in assay [3] (maximum inhibition) is 67%.
As to `COC[C@@H]1CN(CCc2cc(F)c([C@H]3CCC(=O)NC3=O)c(F)c2)CCN1[C@H]1CC[C@H](n2cc3cc(NC(=O)c4ccc5cc(C#N)cnn45)c(C(C)(C)O)cc3n2)CC1` [Example 325, 3-cyano-N-(2-((1S,4r)-4-((S)-4-(4-((R)-2,6-dioxopiperidin-3-yl)-3,5-difluorophenethyl)-2-(methoxymethyl)piperazin-1-yl)cyclohexyl)-6-(2-hydroxypropan-2-yl)-2H-indazol-5-yl)pyrrolo[1,2-b]pyridazine-7-carboxamide], the figures for the Dmax in assay [1] (setting [7]) and in assay [4] were 96% and 91%, respectively. Besides, the DC50 turned out to be 0.9 nM in assay [1] (setting [8]) and 15 nM in assay [4]. In addition, half-maximal inhibition in assay [3] (IC50) was put at 4.2 nM. Moreover, the Emax in assay [3] (maximum inhibition) turned out to be 72%.
Take `CC(C)(O)c1cc2nn([C@H]3CC[C@H](N4C[C@@H]5CN(CCc6cc(F)c([C@H]7CCC(=O)NC7=O)c(F)c6)C[C@H]5C4)CC3)cc2cc1NC(=O)c1ccc2cc(C#N)cnn12` [Example 362, 3-cyano-N-(2-((1S,4r)-4-((3aS,6aS)-5-(4-((R)-2,6-dioxopiperidin-3-yl)-3,5-difluorophenethyl)hexahydropyrrolo[3,4-c]pyrrol-2(1H)-yl)cyclohexyl)-6-(2-hydroxypropan-2-yl)-2H-indazol-5-yl)pyrrolo[1,2-b]pyridazine-7-carboxamide]: the results for the Dmax in assay [1] (setting [7]) and in assay [4] were 98% and 97%, respectively. The values for the half-maximal degradation concentration (DC50) in assay [1] (setting [8]) and in assay [4] were 2.5 nM and 5.1 nM, respectively. The compound further had an IC50 in assay [3] of 6 nM. The Emax in assay [3] (maximum inhibition) worked out at 71%.
Consider `CC[C@@H]1[C@H](F)C(=O)N[C@@H]1COc1nccc2cc(C(N)=O)c(OC)cc12` [PF-06650833], for which 19 nM corresponded to half-maximal inhibition in assay [2] (IC50). In assay [2] (maximum inhibition), the “TNF-α (THP-1) 24 h IMax” value is listed as 67%. Further, in assay [3] (maximum inhibition), the “IL-6 (PBMC) 5 h IMax” value is recorded as <50%.
For `CC(C)(O)c1cc2nn([C@H]3CC[C@H](N4CCN([C@H]5C[C@H](c6ccc(N[C@H]7CCC(=O)NC7=O)cc6)C5)CC4)CC3)cc2cc1NC(=O)c1ccc2cc(C#N)cnn12` [Example 274, 3-cyano-N-(2-((1R,4r)-4-(4-((1S,3R)-3-(4-(((S)-2,6-dioxopiperidin-3-yl)amino)phenyl)cyclobutyl)piperazin-1-yl)cyclohexyl)-6-(2-hydroxypropan-2-yl)-2H-indazol-5-yl)pyrrolo[1,2-b]pyridazine-7-carboxamide], the Dmax was 97% in assay [1] (setting [5]), 97% in assay [1] (setting [7]) and 99% in assay [4]. Further, the DC50 was 9.8 nM in assay [1] (setting [6]), 1.6 nM in assay [1] (setting [8]) and 3.7 nM in assay [4]. For the same compound, in assay [3], the IC50 worked out at 2 nM. Besides, the Emax in assay [3] (maximum inhibition) stood at 64%.
